Measured values published in ChEMBL document CHEMBL4382204 (Eur J Med Chem, 2018).
Active and inactive are the calls of the source. No cut-off for these calls is given here.

Columns and labels:
[1] = biological target: Vascular endothelial growth factor receptor 1 (Homo sapiens) (UniProt P17948); test: Inhibition of wild type C-terminal FLAG-tagged human TEL fused FLT1 (unknown origin) transfected in mouse BAF3 cells assessed as growth inhibition after 72 hrs by CCK8 assay; assay type: cell-based
[2] = biological target: Vascular endothelial growth factor receptor 2 (Homo sapiens) (UniProt P35968); test: Inhibition of wild type C-terminal FLAG-tagged human TEL fused VEGFR2 (unknown origin) transfected in mouse BAF3 cells assessed as growth inhibition after 72 hrs by CCK8 assay; assay type: cell-based
[3] = biological target: Fibroblast growth factor receptor 1 (Homo sapiens) (UniProt P11362); test: Inhibition of wild type C-terminal FLAG-tagged human TEL fused FGFR1 (unknown origin) transfected in mouse BAF3 cells assessed as growth inhibition after 72 hrs by CCK8 assay; assay type: cell-based
[4] = biological target: Ephrin type-A receptor 1 (Homo sapiens) (UniProt P21709); test: Inhibition of wild type C-terminal FLAG-tagged human TEL fused EPHA1 (unknown origin) transfected in mouse BAF3 cells assessed as growth inhibition after 72 hrs by CCK8 assay; assay type: cell-based
[5] = biological target: Discoidin domain-containing receptor 2 (Homo sapiens) (UniProt Q16832); test: Inhibition of BCR fused DDR2 (unknown origin) transfected in mouse BAF3 cells assessed as growth inhibition after 72 hrs by CCK8 assay; assay type: cell-based
K562 [6] = test: Antiproliferative activity in human K562 cells after 72 hrs by CCK8 assay; assay type: functional; conditions: K562, 72 h
OCI-AML2 = test: Antiproliferative activity in human OCI-AML2 cells after 72 hrs by CCK8 assay; assay type: functional; conditions: OCI-AML2, 72 h
[7] = biological target: T1, Bcr/Abl fusion protein (Homo sapiens) (UniProt P00519+P11274); test: (§1) Inhibition of BCR/ABL in human K562 cells assessed as inhibition of BCR/ABL autophosphorylation at Y245 site after 1 hr by immunoblotting analysis; assay type: cell-based
Bcr/Abl fusion protein [8] = biological target: Bcr/Abl fusion protein (Homo sapiens, UniProt P00519); test: as §1; assay type: cell-based
[9] = biological target: T1, Bcr/Abl fusion protein (Homo sapiens); test: Inhibition of BCR/ABL in human K562 cells assessed as inhibition of ErK phosphorylation up to 0.3 uM after 1 hr by immunoblotting analysis; assay type: cell-based
[10] = biological target: T1, Bcr/Abl fusion protein (Homo sapiens); test: Inhibition of BCR/ABL in human KU812 cells assessed as inhibition of ErK phosphorylation up to 0.3 uM after 1 hr by immunoblotting analysis; assay type: cell-based
Bcr/Abl fusion protein [11] = biological target: Bcr/Abl fusion protein (Homo sapiens, UniProt P00519, T315I); test: Inhibition of BCR/ABL T315I mutant (unknown origin) expressed in mouse BAF3 cells assessed as inhibition of BCR/ABL T315I mutant autophosphorylation at Y245 site after 1 hr by immunoblotting analysis; assay type: cell-based
K562 [12] = test: Induction of apoptosis in human K562 cells assessed as cleaved PARP level up to 0.3 uM after 24 hrs by immunoblotting analysis; assay type: functional, cell-based
MEG-01 = test: Induction of apoptosis in human MEG01 cells assessed as cleaved caspase-3 level up to 0.3 uM after 24 hrs by immunoblotting analysis; assay type: functional, cell-based
K562 [13] = test: Cell cycle arrest in human K562 cells assessed as accumulation at G0/G1 phase up to 0.3 uM after 24 hrs by propidium iodide/RNase staining based flow cytometric analysis; assay type: functional
KU812 cell line = test: Cell cycle arrest in human KU812 cells assessed as accumulation at G0/G1 phase up to 0.3 uM after 24 hrs by propidium iodide/RNase staining based flow cytometric analysis; assay type: functional
BaF3 [14] = test: Cell cycle arrest in mouse BAF3 cells expressing BCR/ABL T315I mutant assessed as accumulation at G0/G1 phase up to 0.3 uM after 24 hrs by propidium iodide/RNase staining based flow cytometric analysis; assay type: functional
[15] = Half life in mouse at 10 mg/kg, po by LC-MS/MS analysis; assay type: ADME, organism-based; conditions: in vivo
[16] = Tmax in mouse at 1 mg/kg, iv by LC-MS/MS analysis; assay type: ADME, organism-based; conditions: in vivo
[17] = Tmax in mouse at 10 mg/kg, po by LC-MS/MS analysis; assay type: ADME, organism-based; conditions: in vivo
[18] = AUC (0 to t) in mouse at 1 mg/kg, iv by LC-MS/MS analysis; assay type: ADME, organism-based; conditions: in vivo
[19] = AUC (0 to infinity) in mouse at 1 mg/kg, iv by LC-MS/MS analysis; assay type: ADME, organism-based; parameters: dose 1 mg/kg, route intravenous, time infinity; conditions: in vivo
[20] = AUC (0 to infinity) in mouse at 10 mg/kg, po by LC-MS/MS analysis; assay type: ADME, organism-based; parameters: dose 10 mg/kg, route oral, time infinity; conditions: in vivo
[21] = Tmax in Sprague-Dawley rat at 1 mg/kg, iv by LC-MS/MS analysis; assay type: ADME, organism-based; conditions: in vivo
[22] = AUC (0 to t) in Sprague-Dawley rat at 10 mg/kg, po by LC-MS/MS analysis; assay type: ADME, organism-based; conditions: in vivo
[23] = AUC (0 to infinity) in Sprague-Dawley rat at 1 mg/kg, iv by LC-MS/MS analysis; assay type: ADME, organism-based; parameters: dose 1 mg/kg, time infinity, route intravenous; conditions: in vivo
[24] = Apparent volume of distribution during terminal phase in Sprague-Dawley rat at 10 mg/kg, po by LC-MS/MS analysis; assay type: ADME, organism-based; conditions: in vivo
[25] = Apparent clearance during terminal phase in Sprague-Dawley rat at 10 mg/kg, po by LC-MS/MS analysis; assay type: ADME, organism-based; conditions: in vivo, read-out: CLz/F (converted)
[26] = MRT (0 to t) in Sprague-Dawley rat at 1 mg/kg, iv by LC-MS/MS analysis; assay type: ADME, organism-based; conditions: in vivo
[27] = Oral bioavailability in Sprague-Dawley rat at 10 mg/kg by LC-MS/MS analysis; assay type: ADME, organism-based; conditions: in vivo
[28] = Toxicity in nu/nu mouse allografted with mouse BAF3 cells expressing BCR/ABL T315I mutant assessed as effect on body weight at 25 to 50 mg/kg, po administered daily via gavage for 14 days; assay type: organism-based; conditions: in vivo, 336 h
BaF3 [29] = test: Antitumor activity against mouse BAF3 cells expressing BCR/ABL T315I mutant allografted in nu/nu mouse assessed as tumor growth inhibition at 25 mg/kg, po administered via gavage for 14 days relative to control; assay type: functional; conditions: 336 h, read-out: TGI
BaF3 [30] = test: Antitumor activity against mouse BAF3 cells expressing BCR/ABL T315I mutant allografted in nu/nu mouse assessed as tumor growth inhibition at 25 to 50 mg/kg, po administered via gavage for 14 days by Ki-67 staining based assay; assay type: functional, organism-based
[31] = biological target: Tyrosine-protein kinase ABL1 (Homo sapiens, UniProt P00519, T315I); test: Inhibition of inactive wild type His-tagged ABL T315I mutant (229 to 500 residues) (unknown origin) expressed in baculovirus infected sf9 cells assessed as reduction in autophosphorylation preincubated for 60 mins followed by ATP addition measured after 8 hrs by ADP-Glo assay
[32] = system: Bcr/Abl fusion protein (Homo sapiens), P00519+P11274 [F317I]; conditions: BaF3
[33] = system: Bcr/Abl fusion protein (Homo sapiens), P00519+P11274 [H396P]; conditions: BaF3
[34] = system: Bcr/Abl fusion protein (Homo sapiens), P00519+P11274 [M351T]; conditions: BaF3

Sequence of Vascular endothelial growth factor receptor 1 (Homo sapiens) (P17948 whole entry, the tested form may be a part): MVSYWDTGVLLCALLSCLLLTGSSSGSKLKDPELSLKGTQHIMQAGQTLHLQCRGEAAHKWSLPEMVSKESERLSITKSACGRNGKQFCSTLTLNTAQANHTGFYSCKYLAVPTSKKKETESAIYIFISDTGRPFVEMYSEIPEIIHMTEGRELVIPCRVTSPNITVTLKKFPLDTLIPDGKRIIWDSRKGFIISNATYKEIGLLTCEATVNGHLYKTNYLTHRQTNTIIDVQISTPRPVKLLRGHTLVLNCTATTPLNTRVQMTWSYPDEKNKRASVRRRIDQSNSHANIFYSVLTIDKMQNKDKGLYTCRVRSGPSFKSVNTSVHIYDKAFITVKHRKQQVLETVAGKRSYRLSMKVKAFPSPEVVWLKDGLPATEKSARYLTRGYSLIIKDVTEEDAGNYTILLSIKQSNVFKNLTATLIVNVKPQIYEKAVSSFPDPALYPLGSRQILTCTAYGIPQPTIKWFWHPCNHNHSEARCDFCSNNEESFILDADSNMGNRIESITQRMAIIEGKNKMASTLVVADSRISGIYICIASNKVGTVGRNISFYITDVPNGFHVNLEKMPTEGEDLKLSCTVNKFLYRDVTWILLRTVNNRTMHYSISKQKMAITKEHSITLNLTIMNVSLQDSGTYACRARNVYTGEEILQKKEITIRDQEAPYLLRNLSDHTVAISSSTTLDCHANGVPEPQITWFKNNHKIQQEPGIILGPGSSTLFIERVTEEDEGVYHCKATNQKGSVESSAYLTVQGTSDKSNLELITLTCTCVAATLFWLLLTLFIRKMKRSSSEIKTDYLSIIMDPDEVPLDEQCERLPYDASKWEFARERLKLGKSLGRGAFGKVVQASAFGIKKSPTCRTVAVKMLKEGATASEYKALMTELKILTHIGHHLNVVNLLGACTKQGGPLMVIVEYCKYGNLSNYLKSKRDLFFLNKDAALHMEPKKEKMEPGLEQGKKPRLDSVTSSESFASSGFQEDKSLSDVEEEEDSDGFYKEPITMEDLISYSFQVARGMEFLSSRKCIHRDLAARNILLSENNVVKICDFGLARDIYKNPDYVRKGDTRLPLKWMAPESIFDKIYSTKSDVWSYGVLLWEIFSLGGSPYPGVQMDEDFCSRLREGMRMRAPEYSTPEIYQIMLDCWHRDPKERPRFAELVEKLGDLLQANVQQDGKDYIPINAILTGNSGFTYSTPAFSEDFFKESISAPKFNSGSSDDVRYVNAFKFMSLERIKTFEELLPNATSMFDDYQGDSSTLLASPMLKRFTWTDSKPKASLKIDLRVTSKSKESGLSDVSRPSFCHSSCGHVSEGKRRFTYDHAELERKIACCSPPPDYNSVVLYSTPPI
Sequence of Vascular endothelial growth factor receptor 2 (Homo sapiens) (P35968 whole entry, the tested form may be a part): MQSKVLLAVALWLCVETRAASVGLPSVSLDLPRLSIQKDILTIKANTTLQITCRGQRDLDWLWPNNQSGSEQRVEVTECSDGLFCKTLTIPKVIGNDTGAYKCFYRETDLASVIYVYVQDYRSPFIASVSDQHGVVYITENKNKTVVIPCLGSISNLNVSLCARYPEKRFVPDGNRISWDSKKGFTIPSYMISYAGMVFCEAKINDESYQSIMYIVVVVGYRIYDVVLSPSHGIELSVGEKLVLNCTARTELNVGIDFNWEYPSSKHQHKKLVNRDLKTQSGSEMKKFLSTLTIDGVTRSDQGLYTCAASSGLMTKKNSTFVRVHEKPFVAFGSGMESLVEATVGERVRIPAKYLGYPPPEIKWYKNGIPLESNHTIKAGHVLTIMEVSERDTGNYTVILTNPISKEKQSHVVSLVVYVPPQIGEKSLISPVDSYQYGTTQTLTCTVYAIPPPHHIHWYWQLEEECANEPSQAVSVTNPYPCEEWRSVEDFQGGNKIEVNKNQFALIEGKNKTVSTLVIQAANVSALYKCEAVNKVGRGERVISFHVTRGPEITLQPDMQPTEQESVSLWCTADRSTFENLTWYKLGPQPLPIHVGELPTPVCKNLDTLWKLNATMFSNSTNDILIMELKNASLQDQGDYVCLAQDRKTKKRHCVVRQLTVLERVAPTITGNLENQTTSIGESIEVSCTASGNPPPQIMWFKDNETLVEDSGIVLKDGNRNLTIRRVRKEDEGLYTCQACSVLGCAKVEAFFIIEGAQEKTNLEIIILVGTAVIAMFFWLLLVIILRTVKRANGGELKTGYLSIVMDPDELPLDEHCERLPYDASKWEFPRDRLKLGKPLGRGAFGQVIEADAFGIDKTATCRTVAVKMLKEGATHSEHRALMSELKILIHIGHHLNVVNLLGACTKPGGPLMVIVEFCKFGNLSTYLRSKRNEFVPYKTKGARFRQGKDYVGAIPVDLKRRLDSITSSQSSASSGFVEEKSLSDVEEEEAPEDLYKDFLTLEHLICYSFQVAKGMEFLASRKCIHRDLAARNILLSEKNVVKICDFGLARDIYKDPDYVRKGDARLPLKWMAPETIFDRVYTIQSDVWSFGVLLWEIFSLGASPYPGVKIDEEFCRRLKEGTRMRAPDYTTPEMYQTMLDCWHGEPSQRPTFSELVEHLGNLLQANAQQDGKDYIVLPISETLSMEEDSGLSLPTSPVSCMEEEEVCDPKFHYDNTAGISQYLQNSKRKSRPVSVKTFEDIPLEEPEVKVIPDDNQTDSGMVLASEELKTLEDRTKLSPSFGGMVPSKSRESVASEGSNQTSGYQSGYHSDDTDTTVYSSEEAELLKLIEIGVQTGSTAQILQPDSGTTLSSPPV
Sequence of Discoidin domain-containing receptor 2 (Homo sapiens) (Q16832 whole entry, the tested form may be a part): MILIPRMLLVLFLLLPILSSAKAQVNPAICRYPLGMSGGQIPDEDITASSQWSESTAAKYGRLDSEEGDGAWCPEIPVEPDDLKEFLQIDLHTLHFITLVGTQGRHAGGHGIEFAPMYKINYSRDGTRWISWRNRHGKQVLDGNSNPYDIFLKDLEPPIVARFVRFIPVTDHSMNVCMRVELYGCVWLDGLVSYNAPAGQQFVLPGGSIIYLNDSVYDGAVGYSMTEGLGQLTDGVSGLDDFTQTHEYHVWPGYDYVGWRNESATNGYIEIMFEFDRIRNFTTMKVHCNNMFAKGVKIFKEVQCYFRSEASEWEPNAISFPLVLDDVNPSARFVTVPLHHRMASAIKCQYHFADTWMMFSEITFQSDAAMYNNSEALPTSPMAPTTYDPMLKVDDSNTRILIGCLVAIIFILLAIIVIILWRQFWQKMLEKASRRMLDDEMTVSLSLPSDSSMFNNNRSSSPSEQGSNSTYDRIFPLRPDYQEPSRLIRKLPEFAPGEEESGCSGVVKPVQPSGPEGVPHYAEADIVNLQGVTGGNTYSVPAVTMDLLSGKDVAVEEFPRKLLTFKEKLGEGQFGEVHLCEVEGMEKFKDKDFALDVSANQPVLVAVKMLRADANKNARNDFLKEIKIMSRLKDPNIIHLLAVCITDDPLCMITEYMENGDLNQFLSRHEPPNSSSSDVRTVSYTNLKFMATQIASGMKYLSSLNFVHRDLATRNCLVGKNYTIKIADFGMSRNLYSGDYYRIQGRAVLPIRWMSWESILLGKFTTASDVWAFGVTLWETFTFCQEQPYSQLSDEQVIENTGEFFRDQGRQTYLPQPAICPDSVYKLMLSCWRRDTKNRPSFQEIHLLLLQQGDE
Sequence of Fibroblast growth factor receptor 1 (Homo sapiens) (P11362 22-822 limits assumed): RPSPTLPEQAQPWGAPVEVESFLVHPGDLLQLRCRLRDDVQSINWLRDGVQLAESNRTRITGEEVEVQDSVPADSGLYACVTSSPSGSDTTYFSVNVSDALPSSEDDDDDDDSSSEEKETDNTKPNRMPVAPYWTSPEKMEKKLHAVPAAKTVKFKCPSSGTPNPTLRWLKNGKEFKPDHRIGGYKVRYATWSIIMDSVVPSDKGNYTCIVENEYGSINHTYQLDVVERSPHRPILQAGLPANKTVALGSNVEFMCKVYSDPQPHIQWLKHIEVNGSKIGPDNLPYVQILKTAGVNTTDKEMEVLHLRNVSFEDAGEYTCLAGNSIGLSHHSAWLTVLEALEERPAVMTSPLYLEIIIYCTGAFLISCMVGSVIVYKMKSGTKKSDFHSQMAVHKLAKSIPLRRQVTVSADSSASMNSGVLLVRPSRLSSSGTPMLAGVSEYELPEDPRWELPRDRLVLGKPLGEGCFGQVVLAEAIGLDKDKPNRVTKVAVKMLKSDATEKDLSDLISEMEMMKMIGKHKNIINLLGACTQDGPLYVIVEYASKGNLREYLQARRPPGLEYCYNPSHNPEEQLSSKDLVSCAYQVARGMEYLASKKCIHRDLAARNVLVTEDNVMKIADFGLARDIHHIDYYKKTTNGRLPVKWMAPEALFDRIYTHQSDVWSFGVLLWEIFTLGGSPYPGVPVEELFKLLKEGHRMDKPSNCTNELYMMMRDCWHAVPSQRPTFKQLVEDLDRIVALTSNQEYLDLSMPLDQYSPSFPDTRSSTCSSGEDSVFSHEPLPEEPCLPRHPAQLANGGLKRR

Compound: CN1CCN(Cc2ccc(NC(=O)CCSc3ccc4c(/C=C/c5ccccn5)n[nH]c4c3)cc2C(F)(F)F)CC1
- GI50 [1]: 2 nM
- GI50 [2]: 2 nM
- GI50 [3]: 42 nM
- GI50 [4]: 920 nM
- GI50 [5]: 1540 nM
- GI50 (K562 [6]): 1 nM
- GI50 (OCI-AML2): 1420 nM
- inhibition [7]: Dose-dependent effect
- EC50 (Bcr/Abl fusion protein [8]): < 10 nM
- inhibition [9]: Active
- inhibition [10]: Active
- EC50 (Bcr/Abl fusion protein [11]): < 10 nM
- Activity (K562 [12]): Active
- Activity (MEG-01): Active
- Activity (K562 [13]): Active
- Activity (KU812 cell line): Active
- Activity (BaF3 [14]): Active
- half-life [15]: 2 h
- Tmax [16]: 1.8 min
- Tmax [17]: 1 h
- AUC(0-t) [18]: 148 ng·h/mL
- AUC(0-inf) [19]: 160 ng·h/mL
- AUC(0-inf) [20]: 230 ng·h/mL
- Tmax [21]: 1.2 min
- AUC(0-t) [22]: 210 ng·h/mL
- AUC(0-inf) [23]: 202 ng·h/mL
- Vz [24]: 139.1 L/kg
- CL/F [25]: 633 mL/min/kg
- MRT last [26]: 1.2 h
- bioavailability [27]: 10.9%
- Activity [28]: Non-Toxic
- inhibition in vivo at 25 mg/kg (BaF3 [29]): 29%
- TGI (BaF3 [30]): Active
- IC50 [31]: 0.2 nM
- GI50 [32]: 25 nM
- GI50 [33]: 35 nM
- GI50 [34]: 17 nM
